Test results taken from patent US10981879B2, “Thioether triazolopyridine and triazolopyrimidine inhibitors of myeloperoxidase” (BRISTOL-MYERS SQUIBB COMPANY, priority 2014, dated 2021).

Molecular target: myeloperoxidase (MPO) (Homo sapiens (Human), UniProt P05164)
Test: MPO chlorination assay (APF)
Format: biochemical
Details: MPO chlorination assay, ranges given; read-out: MPO chlorination assay IC50
Procedure, shortened: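 Human MPO (200 pM) with 120 mM NaCl preincubated with inhibitor 10 minutes at rt in 100 mM KPi pH 7.4. Reaction started with APF mixture containing 10 μM H2O2; fluorescein fluorescence (ex 485/em 535 nm) read kinetically 3 minutes. IC50 from slopes of linear kinetic portion, fitted with a four-parameter Hill equation.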

Chain of myeloperoxidase (MPO) (P05164 49-745): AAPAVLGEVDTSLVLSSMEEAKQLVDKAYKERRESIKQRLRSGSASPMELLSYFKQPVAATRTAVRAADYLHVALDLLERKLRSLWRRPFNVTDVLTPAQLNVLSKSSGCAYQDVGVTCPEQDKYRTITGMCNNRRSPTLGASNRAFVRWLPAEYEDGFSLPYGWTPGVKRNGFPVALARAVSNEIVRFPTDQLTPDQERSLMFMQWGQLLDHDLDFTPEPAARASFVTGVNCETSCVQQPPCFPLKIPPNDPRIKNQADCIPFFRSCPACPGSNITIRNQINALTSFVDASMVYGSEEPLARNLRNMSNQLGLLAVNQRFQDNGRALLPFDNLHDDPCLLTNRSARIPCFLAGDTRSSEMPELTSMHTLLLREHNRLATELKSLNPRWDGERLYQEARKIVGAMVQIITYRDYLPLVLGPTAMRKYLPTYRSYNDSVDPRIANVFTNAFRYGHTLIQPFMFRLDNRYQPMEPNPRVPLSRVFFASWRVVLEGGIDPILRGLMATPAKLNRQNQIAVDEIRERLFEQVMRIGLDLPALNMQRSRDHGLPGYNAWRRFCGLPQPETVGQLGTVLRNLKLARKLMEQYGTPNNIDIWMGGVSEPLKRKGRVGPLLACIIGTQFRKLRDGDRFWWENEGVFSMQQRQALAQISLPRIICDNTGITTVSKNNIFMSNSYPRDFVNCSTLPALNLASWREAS

Row | IC50 [µM] | SMILES
1 | 0.2 to 1 | N#Cc1cn(-c2ccccc2)nc1CSc1cc(N)nc2[nH]nnc12 [Example 147, 3-(((5-amino-3H-[1,2,3]triazolo[4,5-b]pyridin-7-yl)thio)methyl)-1-phenyl-1H-pyrazol-4-carbonitrile]
2 | 0.06 to 0.2 | Cc1ccc(-c2nc(CSc3cc(N)nc4[nH]nnc34)c(C)s2)cc1 [Example 22, 7-(((5-methyl-2-(p-tolyl)thiazol-4-yl)methyl)thio)-3H-[1,2,3]triazolo[4,5-b]pyridin-5-amine]
3 | 0.2 to 1 | COc1cccc(-n2nc(C)c(CSc3cc(N)nc4[nH]nnc34)n2)c1 [Example 69, 7-(((2-(3-methoxyphenyl)-5-methyl-2H-1,2,3-triazol-4-yl)methyl)thio)-3H-[1,2,3] triazolo[4,5-b]pyridin-5-amine]
4 | 0.06 to 0.2 | Cc1nn(Cc2ccccc2)c(Cl)c1CSc1cc(N)nc2[nH]nnc12 [Example 76, 7-(((1-benzyl-5-chloro-3-methyl-1H-pyrazol-4-yl)methyl)thio)-3H-[1,2,3] triazolo[4,5-b]pyridin-5-amine]
5 | 0.2 to 1 | CCn1nc(C(F)(F)F)cc1CSc1cc(N)nc2[nH]nnc12 [Example 36, 7-(((1-ethyl-3-(trifluoromethyl)-1H-pyrazol-5-yl)methyl)thio)-3H-[1,2,3]triazolo[4,5-b] pyridin-5-amine]
6 | 0.2 to 1 | Nc1cc(SCc2cn(-c3cnc(C(=O)N4CCC4)cn3)nc2C(F)F)c2nn[nH]c2n1 [Example 146]
7 | 0.06 to 0.2 | Nc1cc(SCc2cc(OC(F)(F)F)ccc2F)c2nn[nH]c2n1 [Example 49, 7-((2-fluoro-5-(trifluoromethoxy)benzyl)thio)-3H-[1,2,3]triazolo[4,5-b]pyridin-5-amine]
8 | 0.06 to 0.2 | Cc1cc(CSc2cc(N)nc3[nH]nnc23)c(Cl)nc1Cl [Example 24, 7-(((2,6-dichloro-5-methylpyridin-3-yl)methyl)thio)-3H-[1,2,3]triazolo[4,5-b]pyridin-5-amine]
9 | 0.06 to 0.2 | Nc1cc(SCc2cccc3c2OC(F)(F)O3)c2nn[nH]c2n1 [Example 105, 7-(((2,2-difluorobenzo[d] [1,3]dioxol-4-yl)methyl)thio)-3H-[1,2,3]triazolo[4,5-b]pyridin-5-amine]
10 | 0.06 to 0.2 | Nc1cc(SCc2ccccc2CS(=O)(=O)c2ccccc2)c2nn[nH]c2n1 [Example 35, 7-((2-((phenylsulfonyl)methyl)benzyl)thio)-3H-[1,2,3]triazolo[4,5-b]pyridin-5-amine]
11 | 0.2 to 1 | Cn1nc(-c2ccccc2)c(CSc2cc(N)nc3[nH]nnc23)c1Cl [Example 71, 7-(((5-chloro-1-methyl-3-phenyl-1H-pyrazol-4-yl)methyl)thio)-3H-[1,2,3] triazolo[4,5-b]pyridin-5-amine]
12 | 0.2 to 1 | Nc1cc(SC(C(=O)c2ccccc2)c2ccccc2)c2nn[nH]c2n1 (stereo not shown) [Example 40, 2-((5-amino-3H-[1,2,3]triazolo[4,5-b]pyridin-7-yl)thio)-1,2-diphenylethanone]
13 | 0.2 to 1 | COC(=O)c1ccc2nc(CSc3cc(N)nc4[nH]nnc34)ccc2c1 [Example 31, methyl 2-(((5-amino-3H-[1,2,3]triazolo[4,5-b]pyridin-7-yl)thio)methyl)quinoline-6-carboxylate]

Row | SMILES | IC50 [µM]
14 | CS(=O)(=O)c1cc(Br)cc(F)c1CSc1cc(N)nc2[nH]nnc12 [Example 42, 7-((4-bromo-2-fluoro-6-(methylsulfonyl)benzyl)thio)-3H-[1,2,3]triazolo[4,5-b]pyridin-5-amine] | ≤ 0.06
15 | Nc1cc(SCc2cn(-c3ccccc3)nc2C(F)F)c2nn[nH]c2n1 [Example 138, 7-(((3-(difluoromethyl)-1-phenyl-1H-pyrazol-4-yl)methyl)thio)-3H-[1,2,3]triazolo[4,5-b] pyridin-5-amine] | ≤ 0.06
16 | N#Cc1ccc(CSc2cc(N)nc3[nH]nnc23)c(C2CC2)c1 [Example 133, 4-(((5-amino-3H-[1,2,3]triazolo[4,5-b]pyridin-7-yl)thio)methyl)-3-cyclopropylbenzonitrile] | ≤ 0.06
